The values below come from paper PMC5218480 (PLoS ONE, 2017).

The test system of this assay is MV-4-11 cells. Nature of the assay: Gene expression microarray analysis (Affymetrix PrimeView) and GSEA. Set-up: RFU PODN (11730768_x_at) / Fold change /veh PODN (11730768_x_at) / RFU LINC00158 (11744669_a_at) / Fold change /veh LINC00158 (11744669_a_at) / RFU DUSP10 (11751237_a_at) / Fold change /veh DUSP10 (11751237_a_at) / RFU ID3 (11757404_x_at) / Fold change /veh ID3 (11757404_x_at) / RFU PLEKHG5 (11737974_s_at) / Fold change /veh PLEKHG5 (11737974_s_at) / RFU LRRC4B (11730491_at) / Fold change /veh LRRC4B (11730491_at) / RFU GIMAP4 (11747438_a_at) / Fold change /veh GIMAP4 (11747438_a_at) / RFU KRT8 (11758183_x_at) / Fold change /veh KRT8 (11758183_x_at) / RFU CNN1 (11734310_a_at) / Fold change /veh CNN1 (11734310_a_at) / RFU VPS37D (11726825_at) / Fold change /veh VPS37D (11726825_at) / RFU C10orf10 (11716522_x_at) / Fold change /veh C10orf10 (11716522_x_at) / RFU KIR2DL2 /// KIR2DL4 /// KIR2DL5A /// KIR2DL5B /// KIR2DS1 /// KIR2DS2 /// KIR2DS3 /// KIR2DS4 /// KIR3DL3 /// KIR3DL3 /// KIR3DS1 (11738374_at) / Fold change /veh KIR2DL2 /// KIR2DL4 /// KIR2DL5A /// KIR2DL5B /// KIR2DS1 /// KIR2DS2 /// KIR2DS3 /// KIR2DS4 /// KIR3DL3 /// KIR3DL3 /// KIR3DS1 (11738374_at) / RFU C1QL1 (11718748_at) / Fold change /veh C1QL1 (11718748_at) / RFU TMPRSS4 (11747572_a_at) / Fold change /veh TMPRSS4 (11747572_a_at) / RFU HAMP (11756126_x_at) / Fold change /veh HAMP (11756126_x_at) / RFU RNFT2 (11725882_a_at) / Fold change /veh RNFT2 (11725882_a_at) / RFU NR4A2 (11747474_a_at) / Fold change /veh NR4A2 (11747474_a_at) / RFU ABCC12 (11746883_a_at) / Fold change /veh ABCC12 (11746883_a_at) / RFU TMEM136 (11760407_x_at) / Fold change /veh TMEM136 (11760407_x_at) / RFU CLDN22 /// WWC2 (11732394_at) / Fold change /veh CLDN22 /// WWC2 (11732394_at) / RFU HLA-DPB1 (11760878_x_at) / Fold change /veh HLA-DPB1 (11760878_x_at) / RFU SPINT1 (11716480_a_at) / Fold change /veh SPINT1 (11716480_a_at) / RFU GAP43 (11754022_s_at) / Fold change /veh GAP43 (11754022_s_at) / RFU A4GNT (11735810_at) / Fold change /veh A4GNT (11735810_at) / RFU PRB3 (11715151_x_at) / Fold change /veh PRB3 (11715151_x_at) / RFU TUBB4B (11761932_at) / Fold change /veh TUBB4B (11761932_at) / RFU CAPN14 (11732068_a_at) / Fold change /veh CAPN14 (11732068_a_at) / RFU TMCC2 (11721928_a_at) / Fold change /veh TMCC2 (11721928_a_at) / RFU IRGQ (11745062_a_at) / Fold change /veh IRGQ (11745062_a_at) / RFU FAM174B (11720279_a_at) / Fold change /veh FAM174B (11720279_a_at) / RFU TMPRSS4 (11748680_a_at) / Fold change /veh TMPRSS4 (11748680_a_at) / RFU FAM212B (11763350_a_at) / Fold change /veh FAM212B (11763350_a_at) / RFU PLEKHG5 (11743358_a_at) / Fold change /veh PLEKHG5 (11743358_a_at) / RFU ZSCAN30 (11745921_a_at) / Fold change /veh ZSCAN30 (11745921_a_at) / RFU CMKLR1 (11741424_a_at) / Fold change /veh CMKLR1 (11741424_a_at) / RFU LOC101060620 /// MAPK8IP1 (11723275_at) / Fold change /veh LOC101060620 /// MAPK8IP1 (11723275_at) / RFU SPTSSB (11747773_x_at) / Fold change /veh SPTSSB (11747773_x_at) / RFU PRSS12 (11739890_at) / Fold change /veh PRSS12 (11739890_at) / RFU BIN1 (11741810_x_at) / Fold change /veh BIN1 (11741810_x_at) / RFU WNT11 (11732464_a_at) / Fold change /veh WNT11 (11732464_a_at) / RFU C10orf10 (11716521_a_at) / Fold change /veh C10orf10 (11716521_a_at) / RFU C5orf56 (11738089_at) / Fold change /veh C5orf56 (11738089_at) / RFU CYB561 (11721691_x_at) / Fold change /veh CYB561 (11721691_x_at) / RFU ANKRD19P (11752326_a_at) / Fold change /veh ANKRD19P (11752326_a_at) / RFU OR2T12 /// OR2T33 /// OR2T8 (11738714_s_at) / Fold change /veh OR2T12 /// OR2T33 /// OR2T8 (11738714_s_at) / RFU VCAN (11748164_a_at) / Fold change /veh VCAN (11748164_a_at) / RFU JSRP1 (11732532_at) / Fold change /veh JSRP1 (11732532_at) / RFU KRTAP10-11 (11738290_x_at) / Fold change /veh KRTAP10-11 (11738290_x_at) / RFU MYO3A (11730013_a_at) / Fold change /veh MYO3A (11730013_a_at) / RFU EBF3 (11725865_a_at) / Fold change /veh EBF3 (11725865_a_at) / RFU CAMK2N1 (11719241_x_at) / Fold change /veh CAMK2N1 (11719241_x_at) / RFU C5orf56 (11738088_a_at) / Fold change /veh C5orf56 (11738088_a_at) / RFU OLFML3 (11715873_a_at) / Fold change /veh OLFML3 (11715873_a_at) / RFU LOC100653217 /// NTM (11731650_a_at) / Fold change /veh LOC100653217 /// NTM (11731650_a_at) / RFU MAPK11 (11762145_a_at) / Fold change /veh MAPK11 (11762145_a_at) / RFU FIZ1 (11724087_x_at) / Fold change /veh FIZ1 (11724087_x_at) / RFU OASL (11726364_x_at) / Fold change /veh OASL (11726364_x_at) / RFU SOX15 (11748057_x_at) / Fold change /veh SOX15 (11748057_x_at) / RFU CD79A (11719716_a_at) / Fold change /veh CD79A (11719716_a_at) / RFU HIST1H1D (11736915_at) / Fold change /veh HIST1H1D (11736915_at) / RFU CASKIN2 (11723855_a_at) / Fold change /veh CASKIN2 (11723855_a_at) / RFU LOC730098 (11760151_x_at) / Fold change /veh LOC730098 (11760151_x_at) / RFU OR4N2 (11742367_at) / Fold change /veh OR4N2 (11742367_at) / RFU PRRT2 (11749266_a_at) / Fold change /veh PRRT2 (11749266_a_at) / RFU SNX32 (11753110_a_at) / Fold change /veh SNX32 (11753110_a_at) / RFU CDHR5 (11726645_a_at) / Fold change /veh CDHR5 (11726645_a_at) / RFU RCAN1 (11760418_a_at) / Fold change /veh RCAN1 (11760418_a_at) / RFU FAM167A (11723789_a_at) / Fold change /veh FAM167A (11723789_a_at) / RFU FAM26E (11764081_at) / Fold change /veh FAM26E (11764081_at) / RFU ISYNA1 (11749810_s_at) / Fold change /veh ISYNA1 (11749810_s_at) / RFU ACY1 (11761880_at) / Fold change /veh ACY1 (11761880_at) / RFU 11764098_at / Fold change /veh 11764098_at / RFU SAMD14 (11745864_x_at) / Fold change /veh SAMD14 (11745864_x_at) / RFU NPB (11741838_a_at) / Fold change /veh NPB (11741838_a_at) / RFU TMPRSS6 (11731388_a_at) / Fold change /veh TMPRSS6 (11731388_a_at) / RFU KRTAP10-2 (11738614_at) / Fold change /veh KRTAP10-2 (11738614_at) / RFU ARHGAP8 /// PRR5-ARHGAP8 (11727945_x_at) / Fold change /veh ARHGAP8 /// PRR5-ARHGAP8 (11727945_x_at) / RFU KRTAP5-7 /// NADSYN1 (11734609_at) / Fold change /veh KRTAP5-7 /// NADSYN1 (11734609_at) / RFU RASL12 (11751679_a_at) / Fold change /veh RASL12 (11751679_a_at) / RFU CDKN2B (11736163_a_at) / Fold change /veh CDKN2B (11736163_a_at) / RFU PRF1 (11729649_at) / Fold change /veh PRF1 (11729649_at) / RFU, ZNF638 /// ZNF638-IT1 / Fold change vs veh, ZNF638 /// ZNF638-IT1 / RFU, PANK3 / Fold change vs veh, PANK3 / RFU, SH3YL1 / Fold change vs veh, SH3YL1 / RFU, ZEB2 / Fold change vs veh, ZEB2 / RFU, NRIP1 / Fold change vs veh, NRIP1 / RFU, PTTG1IP / Fold change vs veh, PTTG1IP / RFU, CAPN2 / Fold change vs veh, CAPN2 / RFU, MED14 / Fold change vs veh, MED14 / RFU, SNORA58 / Fold change vs veh, SNORA58 / RFU, C1orf63 / Fold change vs veh, C1orf63 / RFU, LRRFIP1 / Fold change vs veh, LRRFIP1 / RFU, NDUFAF7 / Fold change vs veh, NDUFAF7 / RFU, SLC12A2 / Fold change vs veh, SLC12A2 / RFU, IBTK / Fold change vs veh, IBTK / RFU, ESF1 / Fold change vs veh, ESF1 / Fold change vs veh, TMEM50B / RFU, TAOK1 / Fold change vs veh, TAOK1 / RFU, ACBD3 / Fold change vs veh, ACBD3 / RFU, TMA16 / Fold change vs veh, TMA16 / RFU, RWDD3 / Fold change vs veh, RWDD3 / RFU, BCAT1 / Fold change vs veh, BCAT1 / RFU, EDEM3 / Fold change vs veh, EDEM3 / RFU, TMEM33 / Fold change vs veh, TMEM33 / RFU, WDR75 / Fold change vs veh, WDR75 / RFU, AHCTF1 / Fold change vs veh, AHCTF1 / RFU, TFRC / Fold change vs veh, TFRC / RFU, ZDHHC17 / Fold change vs veh, ZDHHC17 / RFU, NOM1 / Fold change vs veh, NOM1 / RFU, ARL8B / Fold change vs veh, ARL8B / RFU, ZBTB11 / Fold change vs veh, ZBTB11 / RFU, TAMM41 / Fold change vs veh, TAMM41 / RFU, KIAA1704 /// LOC100996395 / Fold change vs veh, KIAA1704 /// LOC100996395 / RFU, ING1 / Fold change vs veh, ING1 / RFU, TRMT61B / Fold change vs veh, TRMT61B / RFU, FUBP3 / Fold change vs veh, FUBP3 / RFU, TP53 / Fold change vs veh, TP53 / RFU, TNKS2 / Fold change vs veh, TNKS2 / RFU, ZFP14 / Fold change vs veh, ZFP14 / RFU, ACTR2 / Fold change vs veh, ACTR2 / RFU, PPP3R1 / Fold change vs veh, PPP3R1 / RFU, PIK3R1 / Fold change vs veh, PIK3R1 / RFU, HNRNPA1 / Fold change vs veh, HNRNPA1 / RFU, RNF170 / Fold change vs veh, RNF170 / RFU, ZNF28 / Fold change vs veh, ZNF28 / RFU, RNGTT / Fold change vs veh, RNGTT / RFU, OGT / Fold change vs veh, OGT / RFU, BRD1 / Fold change vs veh, BRD1 / RFU, MARS / Fold change vs veh, MARS / RFU, ZNF655 / Fold change vs veh, ZNF655 / RFU, FAHD1 / Fold change vs veh, FAHD1 / RFU, BDP1 / Fold change vs veh, BDP1 / RFU, LRRCC1 / Fold change vs veh, LRRCC1 / RFU, ARID1A / Fold change vs veh, ARID1A / RFU, ZNF146 / Fold change vs veh, ZNF146 / RFU, ZNF330 / Fold change vs veh, ZNF330 / RFU, GPN3 / Fold change vs veh, GPN3 / RFU, C9orf123 / Fold change vs veh, C9orf123 / RFU, N4BP2L2 / Fold change vs veh, N4BP2L2 / RFU, ARFIP1 / Fold change vs veh, ARFIP1 / RFU, FAM179B / Fold change vs veh, FAM179B / RFU, BCL10 / Fold change vs veh, BCL10 / RFU, UHRF1BP1L / Fold change vs veh, UHRF1BP1L / RFU, BET1 / Fold change vs veh, BET1 / RFU, CNOT2 / Fold change vs veh, CNOT2 / RFU, ZNF268 / Fold change vs veh, ZNF268 / Fold change vs veh, ZNF507 / RFU, DGCR2 / Fold change vs veh, DGCR2 / RFU, WDSUB1 / Fold change vs veh, WDSUB1 / Fold change vs veh, HSP90B1 /// MIR3652 / RFU, ADSS / Fold change vs veh, ADSS / RFU, GK / Fold change vs veh, GK / RFU, ZNF148 / Fold change vs veh, ZNF148 / RFU, TAF9 / Fold change vs veh, TAF9 / RFU, SLC1A5 / Fold change vs veh, SLC1A5 / RFU, SLMO2 / Fold change vs veh, SLMO2 / RFU, ABCC4 / Fold change vs veh, ABCC4 / RFU, LOC101060439 /// RAP1B / Fold change vs veh, LOC101060439 /// RAP1B / RFU, RFX7 / Fold change vs veh, RFX7 / RFU, GTPBP10 / Fold change vs veh, GTPBP10 / RFU, CNEP1R1 / Fold change vs veh, CNEP1R1 / RFU, BIVM-ERCC5 /// ERCC5 / Fold change vs veh, BIVM-ERCC5 /// ERCC5 / RFU, ILF3 / Fold change vs veh, ILF3 / RFU 11762660_at / Fold change /veh 11762660_at / RFU VCAN (11757783_s_at) / Fold change /veh VCAN (11757783_s_at) / RFU DDX43 (11728927_at) / Fold change /veh DDX43 (11728927_at) / RFU KRT8 (11758188_x_at) / Fold change /veh KRT8 (11758188_x_at) / RFU NKD1 (11759106_at) / Fold change /veh NKD1 (11759106_at) / RFU SRD5A1 (11742802_a_at) / Fold change /veh SRD5A1 (11742802_a_at) / RFU TPSAB1 /// TPSB2 (11721975_s_at) / Fold change /veh TPSAB1 /// TPSB2 (11721975_s_at) / RFU GSTM3 (11746129_a_at) / Fold change /veh GSTM3 (11746129_a_at) / RFU IL23R (11737362_x_at) / Fold change /veh IL23R (11737362_x_at) / RFU TMEM51 (11727254_a_at) / Fold change /veh TMEM51 (11727254_a_at) / RFU PIWIL2 (11732686_x_at) / Fold change /veh PIWIL2 (11732686_x_at) / RFU ORM1 (11744905_x_at) / Fold change /veh ORM1 (11744905_x_at) / RFU CCDC152 (11743942_at) / Fold change /veh CCDC152 (11743942_at) / RFU ECM1 (11717891_a_at) / Fold change /veh ECM1 (11717891_a_at) / RFU IL23R (11748794_a_at) / Fold change /veh IL23R (11748794_a_at) / RFU TNFAIP8L3 (11732012_x_at) / Fold change /veh TNFAIP8L3 (11732012_x_at) / RFU MBOAT4 (11741988_at) / Fold change /veh MBOAT4 (11741988_at) / RFU 11764193_at / Fold change /veh 11764193_at / RFU TMEM53 (11763286_at) / Fold change /veh TMEM53 (11763286_at) / RFU MAGEB2 (11727129_at) / Fold change /veh MAGEB2 (11727129_at) / RFU TMEM200A (11744735_a_at) / Fold change /veh TMEM200A (11744735_a_at) / RFU CCDC152 (11751479_a_at) / Fold change /veh CCDC152 (11751479_a_at) / RFU FAM211A (11726209_a_at) / Fold change /veh FAM211A (11726209_a_at) / RFU RGS16 (11746705_a_at) / Fold change /veh RGS16 (11746705_a_at) / RFU VCAN (11755009_s_at) / Fold change /veh VCAN (11755009_s_at) / RFU RHOB (11743442_s_at) / Fold change /veh RHOB (11743442_s_at) / RFU RGS16 (11720943_a_at) / Fold change /veh RGS16 (11720943_a_at) / RFU RGS16 (11720944_at) / Fold change /veh RGS16 (11720944_at) / RFU, VPS4B / Fold change vs veh, VPS4B / RFU, CREB1 / Fold change vs veh, CREB1 / RFU, DNAJC13 / Fold change vs veh, DNAJC13 / RFU, GNAQ / Fold change vs veh, GNAQ / RFU, CDK5R1 / Fold change vs veh, CDK5R1 / RFU, ZRANB3 / Fold change vs veh, ZRANB3 / RFU, CUL4A / Fold change vs veh, CUL4A / RFU, CCNY / Fold change vs veh, CCNY / RFU, UFL1 / Fold change vs veh, UFL1 / RFU, COG3 / Fold change vs veh, COG3 / RFU, DIAPH2 / Fold change vs veh, DIAPH2 / RFU, SKA2 / Fold change vs veh, SKA2 / RFU, AFF3 / Fold change vs veh, AFF3 / RFU, LMF1 / Fold change vs veh, LMF1 / RFU, IPO11 / Fold change vs veh, IPO11 / RFU, DFFB / Fold change vs veh, DFFB / RFU, FOXP1 / Fold change vs veh, FOXP1 / RFU, CARD8 / Fold change vs veh, CARD8 / RFU, STRN3 / Fold change vs veh, STRN3 / RFU, ADK / Fold change vs veh, ADK / RFU, RASSF2 / Fold change vs veh, RASSF2 / RFU, WIPF1 / Fold change vs veh, WIPF1 / RFU, LARP1B / Fold change vs veh, LARP1B / RFU, RASA1 / Fold change vs veh, RASA1 / RFU, RB1 / Fold change vs veh, RB1 / RFU, PPFIA1 / Fold change vs veh, PPFIA1 / RFU, MAT2A / Fold change vs veh, MAT2A / RFU, CCT5 / Fold change vs veh, CCT5 / RFU, WDR92 / Fold change vs veh, WDR92 / RFU, CUX1 / Fold change vs veh, CUX1 / RFU, TTC7A / Fold change vs veh, TTC7A / RFU, TMEM135 / Fold change vs veh, TMEM135 / RFU, DEPTOR / Fold change vs veh, DEPTOR / RFU, CPM / Fold change vs veh, CPM / RFU, DNAJB6 / Fold change vs veh, DNAJB6 / RFU, CACNA2D3 / Fold change vs veh, CACNA2D3 / RFU, DTX4 / Fold change vs veh, DTX4 / RFU, TFCP2 / Fold change vs veh, TFCP2 / RFU, GMCL1 /// GMCL1P1 / Fold change vs veh, GMCL1 /// GMCL1P1 / RFU, AEBP2 / Fold change vs veh, AEBP2 / RFU, SNHG1 /// SNORD22 /// SNORD25 /// SNORD26 /// SNORD27 /// SNORD28 /// SNORD29 /// SNORD31 / Fold change vs veh, SNHG1 /// SNORD22 /// SNORD25 /// SNORD26 /// SNORD27 /// SNORD28 /// SNORD29 /// SNORD31 / Fold change (Aza/veh), C12orf56 (ProbeSet 11735607_a_at) / Fold change (ACY-1035/veh), C12orf56 (ProbeSet 11735607_a_at) / Fold change (Aza/veh), FGFR1OP (ProbeSet 11751329_s_at) / Fold change (ACY-1035/veh), FGFR1OP (ProbeSet 11751329_s_at) / Fold change (Aza/veh), VPS36 (ProbeSet 11739960_a_at) / Fold change (ACY-1035/veh), VPS36 (ProbeSet 11739960_a_at) / RFU SYPL1 (11715823_x_at) / Fold change /veh SYPL1 (11715823_x_at) / RFU IGFBP7 (11715501_s_at) / Fold change /veh IGFBP7 (11715501_s_at) / RFU REEP3 (11722064_at) / Fold change /veh REEP3 (11722064_at) / RFU IGLL1 (11728026_x_at) / Fold change /veh IGLL1 (11728026_x_at): dose or concentration left out as unconfirmed. It counts as cell-based, human. The following applies: MV-4-11 cells, 48 hours.

Molecules are shown by their SMILES.

For the compound `Nc1ccc(-c2cccs2)cc1NC(=O)c1ccc2c(c1)cc(C1CC1)n2CCN1CCOCC1` [ACY-1035], the “Fold change /veh OASL (11726364_x_at)” value amounted to 1.03.
